Literature values as cited in patent publication US8889867B2, “Solid forms and process for preparing” (Corcept Therapeutics, Inc., priority 2009, dated 2014).

Legend:
[1] = tested on: patients with Cushing's syndrome
[2] = molecular target: glucocorticoid receptor (GR) (Homo sapiens, UniProt P04150); settings: Bertagna (1984)
glucocorticoid receptor (GR), sequence (P04150 whole entry): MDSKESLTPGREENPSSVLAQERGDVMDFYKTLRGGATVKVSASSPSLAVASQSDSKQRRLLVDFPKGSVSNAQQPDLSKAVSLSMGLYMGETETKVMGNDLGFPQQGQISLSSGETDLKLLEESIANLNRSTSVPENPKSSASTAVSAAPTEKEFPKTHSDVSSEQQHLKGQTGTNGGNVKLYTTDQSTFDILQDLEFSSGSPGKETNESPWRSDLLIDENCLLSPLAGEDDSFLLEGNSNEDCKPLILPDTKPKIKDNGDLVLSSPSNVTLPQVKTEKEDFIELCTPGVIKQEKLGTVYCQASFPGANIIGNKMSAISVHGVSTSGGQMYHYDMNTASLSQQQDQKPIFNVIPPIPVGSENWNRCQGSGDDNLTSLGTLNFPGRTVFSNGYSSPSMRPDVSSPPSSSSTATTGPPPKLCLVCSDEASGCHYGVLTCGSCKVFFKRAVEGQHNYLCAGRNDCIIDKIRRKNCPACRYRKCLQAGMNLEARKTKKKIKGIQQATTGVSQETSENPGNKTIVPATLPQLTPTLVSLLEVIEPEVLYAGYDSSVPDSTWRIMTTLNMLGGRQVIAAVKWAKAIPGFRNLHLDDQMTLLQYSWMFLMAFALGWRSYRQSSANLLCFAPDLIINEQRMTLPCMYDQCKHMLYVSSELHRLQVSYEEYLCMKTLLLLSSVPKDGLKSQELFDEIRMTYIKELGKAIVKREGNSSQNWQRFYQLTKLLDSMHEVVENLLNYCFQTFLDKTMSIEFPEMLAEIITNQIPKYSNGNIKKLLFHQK

CC#C[C@]1(O)CC[C@H]2[C@@H]3CCC4=CC(=O)CCC4=C3[C@@H](c3ccc(N(C)C)cc3)C[C@@]21C [mifepristone]
reversal of acute psychosis ([1]; 400 to 800 mg per day, severe Cushing Syndrome due to adrenal cancers and ectopic ACTH secretion from lung cancer, Van der Lely (1991, 1993)): useful in rapidly reversing acute psychosis | patients' conditions, including psychiatric status ([1]; Cushing's syndrome patients, Chrousos (1989), Sartor (1996)): improved the patients' conditions | anti-glucocorticoid effect in humans [2]: effective anti-glucocorticoid agent
